# From patent publication US20080039337A1, “Method for Detection of Conformational Change of a Protein Immobilized on a Substrate” (FUENCE CO., LTD., priority 2004, published 2008)
# Biological target: T1, Amyloid β (1-42) (Homo sapiens, UniProt P05067)
# T1 construct: Amyloid β (1-42); purchased Bachem AG, Bubendorf, Switzerland (printed 'Bachem A G, Budendorf')
# Assay: Detection of conformational change to β-sheet structure of amyloid β (1-42) film immobilized on a substrate, by fluorescent dye binding
# Type: biochemical
# Settings: film immersed into 1 mM ZnCl2 in 10 mM Hepes pH 7.4, 0.15 M NaCl for 10 minutes; dye 1-fluoro-2,5-bis(3-carboxy-4-hyrdoxystyryl)benzene; compared with buffer only and with EDTA after ZnCl2
# Description: Amyloid β (1-42) (Bachem A G, Budendorf, Switzerland) was dissolved in 0.1% ammonia water at the concentration of 1 mg/mL. This solution was sprayed under dry air using an electrospry device described in WO 2002-511792 or an immobilzing device described in Japanese Patent Publication No. 2003-136005. The solution was permeated through a mask with holes of 400 μm in length and 800 μm in width, and then a film having 1 μm thickness was prepared using an electrospray method (the EDS method), then protein was cross-linked at 30° C. for 5 minutes by glutaraldehyde.
# The resulting film was immersed into 10 mM Hepes pH 7.4 buffer solution (hereinafter referred to as “the buffer solution”) containing 0.15 M NaCl for 10 minutes, in the presence or absence of ZnCl2, except that the EDTA sample was only reacted with 1 mM ZnCl2 and then immersed in a buffer solution containing 1 mM EDTA for 10 minutes. After that the film was immersed into a solution of 1-fluoro-2,5-bis(3-carboxy-4-hyrdoxystyryl)benzene (Dojindo Chemical Laboratory Co., Kumamoto) that binds to β-sheet structure, prepared to the final concentration of 0.01% using 50% ethanol solution. Furthermore, the film was immersed into a solution of saturated lithium carbonate, then it was lightly washed by 50% ethanol, then dried and observed under fluorescent microscope. […]
# T1 sequence (P05067 672-713): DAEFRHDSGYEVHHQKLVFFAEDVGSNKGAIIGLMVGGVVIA
compound,measurement,value
[Cl-].[Cl-].[Zn+2] [ZnCl2],"fluorescent intensity of the film (relative intensity), indicating change of amyloid β to β sheet structure",the highest
